Consider 43 compounds from ChEMBL document CHEMBL1140713, “2,3-dihydro-6,7-dihydroxy-1H-isoindol-1-one-based HIV-1 integrase inhibitors” (J Med Chem, 2008).

Structures are written as SMILES. Bounds are passed on as bounds.

The IC50 is the point on the concentration scale where inhibition reaches its midpoint. For orientation: EC50 means the concentration that produces a half-maximal response. A lower EC50 goes with higher potency in that assay.

For assay [1], the target named is T1, Human immunodeficiency virus type 1 integrase (Human immunodeficiency virus 1, UniProt Q7ZJM1). Nature of the assay: Inhibition of recombinant HIV1 integrase-mediated 3'-processing activity in presence of magnesium.
The target in assay [2] is T1, Human immunodeficiency virus type 1 integrase. Nature of the assay: Inhibition of recombinant HIV1 integrase strand transfer activity in presence of magnesium.
The target is the same in assay [3]. In words: Inhibition of recombinant HIV1 integrase-mediated 3'-processing activity in presence of manganese.
Assay [4] has the same target. In words: Inhibition of recombinant HIV1 integrase strand transfer activity in presence of manganese.
Assay [5] relates to Human immunodeficiency virus 1. In words: Antiviral activity against HIV1 in cell based assay. In kind it is functional, organism-based.

T1 sequence (Q7ZJM1 whole entry): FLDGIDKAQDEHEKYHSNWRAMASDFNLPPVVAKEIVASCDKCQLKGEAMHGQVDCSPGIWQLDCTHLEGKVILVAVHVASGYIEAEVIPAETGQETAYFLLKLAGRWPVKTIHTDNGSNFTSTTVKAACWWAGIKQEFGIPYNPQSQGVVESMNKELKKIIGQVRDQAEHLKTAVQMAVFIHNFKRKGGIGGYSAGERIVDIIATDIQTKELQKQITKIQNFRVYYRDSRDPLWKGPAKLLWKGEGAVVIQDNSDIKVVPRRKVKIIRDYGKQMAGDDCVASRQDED

As to `O=C(NN1Cc2ccc(O)c(O)c2C1=O)c1ccccc1O`, the values for the IC50 in assay [1] and in assay [2] were more than 333 µM and 293 µM, respectively.

As for `O=C(NN1Cc2ccc(O)c(O)c2C1=O)c1ccc(F)cc1`, the IC50 in assay [1] was more than 333 µM; in assay [2], 170 µM.

In the case of `O=C1c2c(ccc(O)c2O)CN1NS(=O)(=O)c1ccc(F)cc1`, the figures for the IC50 in assay [1] and in assay [2] were 69 µM and 21 µM, respectively.

Turning to `COc1cccc(C(=O)NNC(=O)c2cccc(O)c2O)c1O`, the half-inhibitory concentration (IC50) in assay [3] turned out to be 11 µM; in assay [4], 9 µM; in assay [1] it was 138 µM; in assay [2], 44 µM.

`O=C(NNC(=O)c1cccc(O)c1O)c1cccnc1`: the IC50 was more than 333 µM in assay [3], 112 µM in assay [4], more than 333 µM in assay [1] and more than 333 µM in assay [2].

`O=C(NCc1ccc(F)cc1)c1cccc(O)c1O`: the half-inhibitory concentration (IC50) in assay [1] is more than 333 µM; in assay [2] it was 108 µM. In addition, the EC50 in assay [5] was more than 30 µM.

For `O=C1c2c(ccc(O)c2O)CN1N1Cc2ccc(O)c(O)c2S1(=O)=O`, the figures for the 50% inhibitory concentration (IC50) in assay [1] and in assay [2] were 7 µM and 1.2 µM, respectively.

Turning to `O=C1c2ccc(O)c(O)c2CN1Cc1ccc(F)cc1`, the IC50 in assay [1] and in assay [2] was more than 333 µM throughout.

For the compound `NNC(=O)c1cccc(O)c1O`, the IC50 in assay [3] is more than 333 µM; in assay [4], 111 µM; in assay [1] it was more than 333 µM; in assay [2], more than 333 µM.

For `O=C1c2c(ccc(O)c2O)CN1N1C(=O)c2cccc(O)c2C1=O`, the IC50 in assay [1] is 42 µM; in assay [2], 11 µM.

As for `O=C1c2c(ccc(O)c2O)CN1CCc1ccccc1`, the IC50 in assay [1] is more than 333 µM; in assay [2] it was 28 µM.

Take `O=C1c2c(ccc(O)c2O)CN1Cc1ccccc1`: the IC50 is more than 333 µM in assay [1] and 12.3 µM in assay [2]. Moreover, the midpoint of the response in assay [5], the EC50, lay at 0.68 µM.

Turning to `O=C1c2c(ccc(O)c2O)CN1Cc1ccc(F)cc1`, the IC50 in assay [1] was 282 µM; in assay [2], 10 µM. In assay [5], this compound returned a 50% effective concentration (EC50) of 0.77 µM.

Consider `COc1cccc(C(=O)NCc2ccc(F)cc2)c1O`, for which the half-inhibitory concentration (IC50) in assay [1] and in assay [2] was more than 333 µM each time.

With `O=C1c2c(ccc(O)c2O)CN1Cc1ccc(F)c(Cl)c1`, the results for the concentration for half-maximal inhibition (IC50) in assay [1] and in assay [2] were 13 µM and 0.16 µM, respectively.

As to `O=C1c2c(ccc(O)c2O)CN1Cc1cccc(Cc2ccccc2)c1`, the IC50 is more than 333 µM in assay [1] and 172 µM in assay [2].

As for `O=C1c2c(ccc(O)c2O)CN1N1C(=O)c2ccc(O)c(O)c2C1=O`, the 50% inhibitory concentration (IC50) in assay [1] came to 78 µM; in assay [2], 0.6 µM.

`O=C1c2c(ccc(O)c2O)CN1/N=C/c1cccc(O)c1O`: the IC50 in assay [1] stood at 87 µM; in assay [2] it was 54 µM.

For `O=C1c2c(ccc(O)c2O)CN1N1Cc2ccc(O)c(O)c2C1=O`, the IC50 worked out at 124 µM in assay [1] and 41 µM in assay [2].

With `O=C(NNC(=O)c1cccc(O)c1O)c1cccc(O)c1O`, the IC50 in assay [3] is 8.9 µM; in assay [4], 5 µM; in assay [1], 6.9 µM; in assay [2], 1.6 µM. For the same compound, in assay [5], the EC50 amounted to 1.67 µM.

Consider `COc1cccc(/C=N/NC(=O)c2cccc(O)c2O)c1OC`, for which the IC50 in assay [3] is more than 333 µM; in assay [4], 18 µM; in assay [1], 112 µM; in assay [2], 68 µM.

For the compound `COc1cccc(C(=O)NNC(=O)c2cccc(OC)c2O)c1O`, the half-inhibitory concentration (IC50) in assay [3] came out at 26 µM; in assay [4] it was 22 µM; in assay [1], 245 µM; in assay [2] it was 123 µM.

Turning to `COc1cccc(C(=O)NNC(=O)c2cc3ccccc3cc2O)c1O`, the IC50 in assay [3] is 12 µM; in assay [4], 8 µM; in assay [1] it was more than 333 µM; in assay [2], more than 333 µM.

On to `COc1cccc(C(=O)NNC(=O)c2cccnc2)c1O`, for which the IC50 in assay [3], in assay [4], in assay [1] and in assay [2] was more than 333 µM in each case.

In the case of `COc1cccc(C(=O)NN)c1O`, the IC50 in assay [3], in assay [4], in assay [1] and in assay [2] was more than 333 µM in each case.

As for `O=C(NNC(=O)c1ccccc1O)c1ccccc1O`, the IC50 is 3.6 µM in assay [3], 1.8 µM in assay [4], more than 333 µM in assay [1] and more than 333 µM in assay [2]. The same compound yielded an EC50 in assay [5] of 2.2 µM.

For the compound `O=C1c2c(ccc(O)c2O)CN1Cc1cccc(CBr)c1`, the results for the 50% inhibitory concentration (IC50) in assay [1] and in assay [2] were 37 µM and 13 µM, respectively.

With `O=C(NCCNC(=O)c1cccc(O)c1O)c1cccc(O)c1O`, the half-maximal inhibitory concentration (IC50) was 85 µM in assay [1] and 50 µM in assay [2].

Turning to `O=C(NCCCNC(=O)c1cccc(O)c1O)c1cccc(O)c1O`, the 50% inhibitory concentration (IC50) in assay [1] is 33 µM; in assay [2] it was 31 µM.

Turning to `O=C(N/N=C/c1cccc(O)c1O)c1cccc(O)c1O`, the concentration for half-maximal inhibition (IC50) in assay [3] is 11 µM; in assay [4] it was 1.3 µM; in assay [1], 61 µM; in assay [2], 54 µM.

Regarding `O=C(NN1Cc2ccc(O)c(O)c2C1=O)c1ccccc1`, the values for the IC50 in assay [1] and in assay [2] were more than 333 µM and 129 µM, respectively.

As to `O=C1c2c(ccc(O)c2O)CN1N1C(=O)c2ccccc2C1=O`, the concentration for half-maximal inhibition (IC50) in assay [1] and in assay [2] was more than 333 µM each time.

As to `O=C(NN1Cc2ccc(O)c(O)c2C1=O)c1cccc(O)c1O`, the half-maximal inhibitory concentration (IC50) in assay [1] was more than 333 µM; in assay [2] it was 6 µM.

Turning to `O=C1c2c(ccc(O)c2O)CN1N(S(=O)(=O)c1ccc(F)cc1)S(=O)(=O)c1ccc(F)cc1`, the IC50 was more than 333 µM in assay [1] and 33 µM in assay [2].

As for `COc1cccc(C(=O)N/N=C/c2ccc(F)cc2)c1O`, the 50% inhibitory concentration (IC50) in assay [1] and in assay [2] was more than 333 µM throughout.

On to `O=C1c2cccc(O)c2C(=O)N1Cc1ccc(F)cc1`, for which the IC50 in assay [1] and in assay [2] was more than 333 µM in each case.

As to `O=C1c2c(ccc(O)c2O)CN1N1C(=O)c2cc(O)c(O)cc2C1=O`, the half-maximal inhibitory concentration (IC50) was determined as 6.7 µM in assay [1] and 0.81 µM in assay [2].

As to `O=C1c2c(ccc(O)c2O)CN1/N=C/c1ccc(F)cc1`, the half-inhibitory concentration (IC50) in assay [1] and in assay [2] was more than 333 µM each time.

Take `O=C(NNC(=O)c1cccc(O)c1O)c1ccccc1O`: the IC50 in assay [3] was 2.8 µM; in assay [4], 0.5 µM; in assay [1], more than 333 µM; in assay [2] it was more than 333 µM. For the same compound, it took 4.8 µM to reach a half-maximal effect in assay [5] (EC50).

As to `O=C1c2c(ccc(O)c2O)CN1N1C(=O)c2ccc(F)cc2C1=O`, the values for the IC50 in assay [1] and in assay [2] were 186 µM and 53 µM, respectively.

Regarding `O=C1c2c(ccc(O)c2O)CN1N(S(=O)(=O)c1ccc(O)c(O)c1)S(=O)(=O)c1ccc(O)c(O)c1`, the IC50 is 1.6 µM in assay [1] and 0.21 µM in assay [2].

Take `O=C(NNC(=O)c1cccc(O)c1O)c1cc2ccccc2cc1O`: the IC50 in assay [3] was 19 µM; in assay [4] it was 16 µM; in assay [1] it was 72 µM; in assay [2], 32 µM.

For `O=C1c2c(ccc(O)c2O)CN1Cc1cccc2ccccc12`, the IC50 in assay [1] came to 61 µM; in assay [2] it was 0.74 µM.
